Measurements as given in ChEMBL document CHEMBL4421728, “Bach1 Inhibitors in Combination with Nrf2 Activators and Pharmaceutical Compositions Thereof” (2017).

Tests used:
[1] = target: T1, Transcription regulator protein BACH1 (Homo sapiens) (UniProt O14867); assay: Inhibition of Bach1 in normal human lung fibroblasts assessed as induction of HMOX protein expression at 1.25 uM incubated for 16 to 18 hrs in presence of 0.019 uM Nrf2 activator Bardoxolone methyl by immunostaining relative to control
T1 sequence (whole entry): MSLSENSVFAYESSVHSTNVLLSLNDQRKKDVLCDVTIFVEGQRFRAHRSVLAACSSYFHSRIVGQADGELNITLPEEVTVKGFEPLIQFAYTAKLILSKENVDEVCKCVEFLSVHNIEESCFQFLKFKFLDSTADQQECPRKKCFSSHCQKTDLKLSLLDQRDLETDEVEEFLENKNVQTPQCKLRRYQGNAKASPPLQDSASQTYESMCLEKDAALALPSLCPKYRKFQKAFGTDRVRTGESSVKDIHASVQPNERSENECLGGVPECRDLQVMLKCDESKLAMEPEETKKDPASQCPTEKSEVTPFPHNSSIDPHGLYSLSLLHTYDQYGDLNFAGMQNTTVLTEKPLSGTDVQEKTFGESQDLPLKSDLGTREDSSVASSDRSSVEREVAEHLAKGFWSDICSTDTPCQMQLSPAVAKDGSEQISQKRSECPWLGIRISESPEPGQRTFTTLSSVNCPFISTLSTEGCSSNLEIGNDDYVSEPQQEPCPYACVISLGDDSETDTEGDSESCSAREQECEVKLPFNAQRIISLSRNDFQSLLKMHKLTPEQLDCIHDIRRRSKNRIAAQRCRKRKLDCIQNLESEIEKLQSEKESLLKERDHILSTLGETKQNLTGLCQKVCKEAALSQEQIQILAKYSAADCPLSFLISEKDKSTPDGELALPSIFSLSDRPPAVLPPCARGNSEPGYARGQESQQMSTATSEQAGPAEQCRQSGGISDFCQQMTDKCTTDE

[2] = target: T1, Transcription regulator protein BACH1 (Homo sapiens); assay: Inhibition of Bach1 in normal human lung fibroblasts assessed as induction of HMOX protein expression at 0.625 uM incubated for 16 to 18 hrs in presence of 0.0048 uM Nrf2 activator Bardoxolone methyl by immunostaining relative to control
[3] = target: T1, Transcription regulator protein BACH1 (Homo sapiens); assay: Inhibition of Bach1 in normal human lung fibroblasts assessed as induction of HMOX protein expression at 0.039 uM incubated for 16 to 18 hrs in presence of 0.078 uM Nrf2 activator Bardoxolone methyl by immunostaining relative to control
[4] = target: T1, Transcription regulator protein BACH1 (Homo sapiens); assay: Inhibition of Bach1 in normal human lung fibroblasts assessed as induction of HMOX protein expression at 0.156 uM incubated for 16 to 18 hrs in presence of 0.312 uM Nrf2 activator Bardoxolone methyl by immunostaining relative to control
[5] = target: T1, Transcription regulator protein BACH1 (Homo sapiens); assay: Inhibition of Bach1 in normal human lung fibroblasts assessed as induction of HMOX protein expression at 0.019 uM incubated for 16 to 18 hrs in presence of 0.0048 uM Nrf2 activator Bardoxolone methyl by immunostaining relative to control
[6] = target: T1, Transcription regulator protein BACH1 (Homo sapiens); assay: Inhibition of Bach1 in normal human lung fibroblasts assessed as induction of HMOX protein expression at 0.078 uM incubated for 16 to 18 hrs in presence of 0.039 uM Nrf2 activator Bardoxolone methyl by immunostaining relative to control
[7] = target: T1, Transcription regulator protein BACH1 (Homo sapiens); assay: Inhibition of Bach1 in normal human lung fibroblasts assessed as induction of HMOX protein expression at 0.625 uM incubated for 16 to 18 hrs in presence of 0.312 uM Nrf2 activator Bardoxolone methyl by immunostaining relative to control
[8] = target: T1, Transcription regulator protein BACH1 (Homo sapiens); assay: Inhibition of Bach1 in normal human lung fibroblasts assessed as induction of HMOX protein expression at 0.019 uM incubated for 16 to 18 hrs in presence of 0.039 uM Nrf2 activator Bardoxolone methyl by immunostaining relative to control
[9] = target: T1, Transcription regulator protein BACH1 (Homo sapiens); assay: Inhibition of Bach1 in normal human lung fibroblasts assessed as induction of HMOX protein expression at 0.078 uM incubated for 16 to 18 hrs in presence of 0.0097 uM Nrf2 activator Bardoxolone methyl by immunostaining relative to control
[10] = target: T1, Transcription regulator protein BACH1 (Homo sapiens); assay: Inhibition of Bach1 in normal human lung fibroblasts assessed as induction of HMOX protein expression at 0.019 uM incubated for 16 to 18 hrs in presence of 0.0097 uM Nrf2 activator Bardoxolone methyl by immunostaining relative to control
[11] = target: T1, Transcription regulator protein BACH1 (Homo sapiens); assay: Inhibition of Bach1 in normal human lung fibroblasts assessed as induction of HMOX protein expression at 2.5 uM incubated for 16 to 18 hrs in presence of 0.0097 uM Nrf2 activator Bardoxolone methyl by immunostaining relative to control
[12] = target: T1, Transcription regulator protein BACH1 (Homo sapiens); assay: Inhibition of Bach1 in normal human lung fibroblasts assessed as induction of HMOX protein expression at 0.078 uM incubated for 16 to 18 hrs in presence of 0.019 uM Nrf2 activator Bardoxolone methyl by immunostaining relative to control
[13] = target: T1, Transcription regulator protein BACH1 (Homo sapiens); assay: Inhibition of Bach1 in normal human lung fibroblasts assessed as induction of HMOX protein expression at 1.25 uM incubated for 16 to 18 hrs in presence of 0.039 uM Nrf2 activator Bardoxolone methyl by immunostaining relative to control
[14] = target: T1, Transcription regulator protein BACH1 (Homo sapiens); assay: Inhibition of Bach1 in normal human lung fibroblasts assessed as induction of HMOX protein expression at 2.5 uM incubated for 16 to 18 hrs in presence of 0.039 uM Nrf2 activator Bardoxolone methyl by immunostaining relative to control
[15] = target: T1, Transcription regulator protein BACH1 (Homo sapiens); assay: Inhibition of Bach1 in normal human lung fibroblasts assessed as induction of HMOX protein expression at 0.019 uM incubated for 16 to 18 hrs in presence of 0.156 uM Nrf2 activator Bardoxolone methyl by immunostaining relative to control
[16] = target: T1, Transcription regulator protein BACH1 (Homo sapiens); assay: Inhibition of Bach1 in normal human lung fibroblasts assessed as induction of HMOX protein expression at 1.25 uM incubated for 16 to 18 hrs in presence of 0.156 uM Nrf2 activator Bardoxolone methyl by immunostaining relative to control
[17] = target: T1, Transcription regulator protein BACH1 (Homo sapiens); assay: Inhibition of Bach1 in normal human lung fibroblasts assessed as induction of HMOX protein expression at 0.039 uM incubated for 16 to 18 hrs in presence of 0.019 uM Nrf2 activator Bardoxolone methyl by immunostaining relative to control
[18] = target: T1, Transcription regulator protein BACH1 (Homo sapiens); assay: Inhibition of Bach1 in normal human lung fibroblasts assessed as induction of HMOX protein expression at 0.078 uM incubated for 16 to 18 hrs in presence of 0.312 uM Nrf2 activator Bardoxolone methyl by immunostaining relative to control
[19] = target: T1, Transcription regulator protein BACH1 (Homo sapiens); assay: Inhibition of Bach1 in normal human lung fibroblasts assessed as induction of HMOX protein expression at 0.019 uM incubated for 16 to 18 hrs in presence of 0.312 uM Nrf2 activator Bardoxolone methyl by immunostaining relative to control
[20] = target: T1, Transcription regulator protein BACH1 (Homo sapiens); assay: Inhibition of Bach1 in normal human lung fibroblasts assessed as induction of HMOX protein expression at 0.078 uM incubated for 16 to 18 hrs in presence of 0.0048 uM Nrf2 activator Bardoxolone methyl by immunostaining relative to control

fold change (FC) [1]: 15.9
fold change (FC) [2]: 17.1
fold change (FC) [3]: 18.7
fold change (FC) [4]: 16
fold change (FC) [5]: 2.88
fold change (FC) [6]: 17.8
fold change (FC) [7]: 12.7
fold change (FC) [8]: 15.9
fold change (FC) [9]: 8.43
fold change (FC) [10]: 7.14
fold change (FC) [11]: 19.4
fold change (FC) [12]: 13.2
fold change (FC) [13]: 15.6
fold change (FC) [14]: 14.7
fold change (FC) [15]: 22.9
fold change (FC) [16]: 16.6
fold change (FC) [17]: 8.57
fold change (FC) [18]: 15.3
fold change (FC) [19]: 17.2
fold change (FC) [20]: 4.72
Structure (SMILES): CNC(=O)c1ccc2c(c1)nc(Nc1nc3ccc(OC(F)(F)F)cc3s1)n2C
